According to US11518759B1, “Protacs based on VHL ligand targeting coronavirus 3CL protease and preparation method and application thereof” (SHAANXI PANLONG PHARMACEUTICAL CO., LTD., priority 2022, dated 2022):
Like-named read-outs stand apart in the source and are kept apart here.

How the values were obtained:
SARS-CoV-2 3CL^pro [1] = molecular target: T1, SARS-CoV-2 3CL^pro (Severe acute respiratory syndrome coronavirus 2 (2019-nCoV) (SARS-CoV-2), UniProt P0DTD1); format: cell-based; conditions: 24 h, Western Blot
SARS-CoV-2 3CL^pro [2] = molecular target: T1, SARS-CoV-2 3CL^pro; experiment: biochemical; conditions: FRET

Cc1ncsc1-c1ccc(CNC(=O)[C@@H]2C[C@@H](O)CN2C(=O)[C@@H](NC(=O)COCCOCCn2cc(Cn3c(=O)[nH]/c(=N\c4cc5cn(C)nc5cc4Cl)n(Cc4cc(F)c(F)cc4F)c3=O)nn2)C(C)(C)C)cc1 [Compound 8]
< 100 nM: DC50 (SARS-CoV-2 3CL^pro [1]; HEK293E cells transfected with 3CLpro plasmid, class symbols) | DC50 (SARS-CoV-2 3CL^pro [1]; read-out: DC50 values for 3CL^pro, HEK293E cells, bound stated) | IC50 (SARS-CoV-2 3CL^pro [2]; SARS-CoV-2 3CLpro 0.5 μM, substrate 20 μM, class symbols, read-out: IC50) | IC50 (SARS-CoV-2 3CL^pro [2]; bound stated, read-out: IC50 values on 3CL^pro)
